System: iPSC-derived neurons
Assay: Mitochondrial motility and clearance in axons of iPSC-derived neurons, live imaging
Format: cell-based, human
Conditions: 5 μM for 24 hrs
Experimental: FIG. 3A-FIG. 3D. Miro1 Reducer Rescues Parkinson's Neurodegeneration. (FIG. 3A) Fibroblasts were treated, lysed, and blotted as indicated. Band intensities are normalized to those of ATP5β from the same blots and compared to “Healthy-2, no treatment”. n=4. (FIG. 3B-FIG. 3C) iPSC-derived neurons were treated as indicated and immunostained with anti-TH (FIG. 3B) or stained with PI and Dapi (FIG. 3C). Both Antimycin A and Miro1 Reducer were dissolved in ethanol. Neurons were pretreated with Miro1 Reducer 24 hrs before the application of Antimycin A for another 6 hrs. The same volume of ethanol was applied at the same time in negative controls. (FIG. 3B) The density of TH-positive neurons is calculated in each condition under 20×, from 10 fields each experiment, 3-4 experiments. […] (FIG. 3C) The percentage of PI-positive cells out of total cells (Dapi-positive) is calculated. n=20 fields each experiment, 4 experiments. […] Graphs of Mean±S.E.M show the percent of time each mitochondrion is in motion (red and blue, compared to “Wild-type-I, before treatment”), and the mitochondrial intensity normalized to that of the same axonal region at “0 min” and expressed as a fraction of the mean of “Wild-type-I, 0 min”. n=33-77 mitochondria from 5-8 axons from 5-8 separate transfections. […]
Live Image Acquisition and Quantification. […]

O=C(Nc1ccc(Nc2cc(-n3ccnc3)ncn2)cc1)Nc1cccc(F)c1 [Miro1 Reducer]
basal motility of polarized, healthy mitochondria: did not affect | delayed arrest and clearance of depolarized mitochondria (then 100 μM Antimycin A, PD patient neurons): rescued the delayed arrest and clearance of depolarized mitochondria

Source: patent US12544375B2, “Small molecule therapeutic for parkinson's disease paired with a biomarker of therapeutic activity” (The Board of Trustees of the Leland Stanford Junior …, priority 2019, dated 2026)
